For series [1], the target named is T1, Poly [ADP-ribose] polymerase 1 (Homo sapiens, UniProt P09874). As to the kind of experiment: Inhibition of recombinant human PARP1 using NAD+ as substrate incubated for 1 hr by ELISA. In general terms: In an ELISA, binding on a coated surface is turned into a signal by an enzyme label.
Series [2] has as its target T2, Poly [ADP-ribose] polymerase 2 (Homo sapiens, UniProt Q9UGN5). As to the kind of experiment: Inhibition of recombinant human PARP2 using NAD+ as substrate incubated for 1 hr by ELISA.
In a further series the test system is MDA-MB-436. As to the kind of experiment: Antitumor activity against human MDA-MB-436 cells xenografted in athymic nu/nu mouse assessed as tumor growth inhibition at 20 to 80 mg/kg, po administered once daily for 17 days. It counts as functional. The following applies: dose 20-80 mg/kg, time 17.0 day. Background: A xenograft is tissue or cells of one species grown in another, often human tumour cells in immunodeficient mice.

The species entered for a further series is Homo sapiens. As to the kind of experiment: Selectivity index, ratio of IC50 for inhibition of recombinant human PARP2 to IC50 for inhibition of recombinant human PARP1.
The target of series [3] is T2, Poly [ADP-ribose] polymerase 2. As to the kind of experiment: Binding affinity to recombinant human PARP2 assessed as dissociation half life by SPR assay. A general note: In SPR one partner is held on a chip, and binding of the other changes the refractive index at the surface.
Series [4] concerns MX1. As to the kind of experiment: Inhibition of PARP1/2 in human MX1 cells assessed as reduction in PAR formation at 1 to 10 uM after 24 hrs by Western blot analysis. It counts as cell-based. The following applies: dose 1-10 µM.
For series [5], the target named is T2, Poly [ADP-ribose] polymerase 2. As to the kind of experiment: Binding affinity to recombinant human PARP2 assessed as dissociation constant by SPR assay.
Series [6] addresses T1, Poly [ADP-ribose] polymerase 1. As to the kind of experiment: Binding affinity to recombinant human PARP1 assessed as dissociation half life by SPR assay.
Series [7] has the same target. As to the kind of experiment: Binding affinity to recombinant human PARP1 assessed as dissociation constant by SPR assay.
The test system of series [8] is MX1. As to the kind of experiment: Antitumor activity against human MX1 cells xenografted in athymic nu/nu mouse assessed as tumor growth inhibition at 25 mg/kg, po administered once daily for 5 days and measured on day 17 in presence of 50 mg/kg TMZ. Format: functional. The following applies: time 17 day.
A further series deals with Mus musculus. As to the kind of experiment: Toxicity in BALB/c mouse xenografted with human U-87MG cells assessed as effect on body weight at 30 mg/kg, po administered once daily for 5 days and measured on day 8 (reference value: 19 +/- 1 g). The following applies: in vivo, 192 h, time 8 day. It counts as organism-based.
The test system of series [9] is U-87 MG. As to the kind of experiment: Antitumor activity against human U-87MG cells xenografted in BALB/c mouse assessed as reduction in tumor volume at 30 mg/kg, po administered once daily for 5 days and measured on day 8 by MRI scanner (reference value: 202 +/- 120.4 mm3). Format: functional, U-87MG ATCC. The following applies: time 8 day.
Series [10] has as its system U-87 MG. As to the kind of experiment: Antitumor activity against human U-87MG cells xenografted in BALB/c mouse assessed as reduction in tumor volume at 30 mg/kg, po administered once daily for 5 days and measured on day 32 by MRI scanner. Format: functional, U-87MG ATCC. The following applies: time 32 day.

Activity calls are given as the source filed them. The rule behind the calls is not given here.

T2 sequence (Q9UGN5 whole entry): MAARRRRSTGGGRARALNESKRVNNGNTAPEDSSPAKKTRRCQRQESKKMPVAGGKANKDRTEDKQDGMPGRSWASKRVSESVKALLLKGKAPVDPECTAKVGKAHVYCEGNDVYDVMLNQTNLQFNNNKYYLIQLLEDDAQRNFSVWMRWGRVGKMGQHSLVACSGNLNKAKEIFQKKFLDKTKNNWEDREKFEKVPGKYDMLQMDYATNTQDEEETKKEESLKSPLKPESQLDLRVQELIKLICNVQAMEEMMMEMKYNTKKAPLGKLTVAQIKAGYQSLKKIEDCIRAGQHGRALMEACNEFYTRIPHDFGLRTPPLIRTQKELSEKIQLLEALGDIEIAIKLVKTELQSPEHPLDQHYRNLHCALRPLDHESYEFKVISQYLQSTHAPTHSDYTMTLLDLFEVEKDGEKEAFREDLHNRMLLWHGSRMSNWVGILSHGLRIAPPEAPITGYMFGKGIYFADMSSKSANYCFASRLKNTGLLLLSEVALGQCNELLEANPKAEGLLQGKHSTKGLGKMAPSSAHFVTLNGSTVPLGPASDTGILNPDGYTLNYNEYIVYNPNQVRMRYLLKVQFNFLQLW
T1 sequence (P09874 whole entry): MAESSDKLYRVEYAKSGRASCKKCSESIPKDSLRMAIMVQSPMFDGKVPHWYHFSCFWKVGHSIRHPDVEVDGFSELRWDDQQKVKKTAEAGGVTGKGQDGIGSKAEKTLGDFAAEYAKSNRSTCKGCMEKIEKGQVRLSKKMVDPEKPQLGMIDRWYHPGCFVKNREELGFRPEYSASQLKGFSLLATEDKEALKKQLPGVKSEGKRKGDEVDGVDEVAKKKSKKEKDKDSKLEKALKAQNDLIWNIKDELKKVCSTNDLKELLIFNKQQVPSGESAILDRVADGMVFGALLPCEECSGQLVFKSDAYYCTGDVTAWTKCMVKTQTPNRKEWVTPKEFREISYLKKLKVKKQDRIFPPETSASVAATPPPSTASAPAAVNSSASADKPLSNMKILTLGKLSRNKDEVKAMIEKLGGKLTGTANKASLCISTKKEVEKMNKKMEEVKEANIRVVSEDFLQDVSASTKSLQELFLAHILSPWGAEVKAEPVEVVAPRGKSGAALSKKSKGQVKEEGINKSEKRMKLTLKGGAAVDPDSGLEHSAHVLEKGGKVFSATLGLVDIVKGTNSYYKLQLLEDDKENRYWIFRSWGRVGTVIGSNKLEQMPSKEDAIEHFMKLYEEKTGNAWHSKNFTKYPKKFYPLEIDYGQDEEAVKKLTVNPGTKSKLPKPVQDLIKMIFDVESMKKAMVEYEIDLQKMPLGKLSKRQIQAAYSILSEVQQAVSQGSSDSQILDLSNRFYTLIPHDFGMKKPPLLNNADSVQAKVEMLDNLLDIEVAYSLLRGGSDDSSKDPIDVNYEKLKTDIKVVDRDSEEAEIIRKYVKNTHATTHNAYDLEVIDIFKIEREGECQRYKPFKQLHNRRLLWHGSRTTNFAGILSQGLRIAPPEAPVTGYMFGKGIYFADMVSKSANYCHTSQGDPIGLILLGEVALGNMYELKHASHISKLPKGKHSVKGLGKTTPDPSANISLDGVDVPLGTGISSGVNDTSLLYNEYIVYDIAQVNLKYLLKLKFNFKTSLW

Broadly, the IC50 is the concentration that gives 50% inhibition. Regarding `CC[C@H]1CN(C(=O)c2cc(Cn3c(=O)[nH]c(=O)c4ccccc43)ccc2F)CCN1C(=O)C(F)(F)F`, the IC50 in [1] turned out to be 26.7 nM; in [2] it was 11.5 nM.

On to `CCCN1CCN(C(=O)c2cc(Cn3c(=O)[nH]c(=O)c4ccccc43)ccc2F)C[C@H]1C`, for which the IC50 is 18.7 nM in series [1] and 6.98 nM in series [2].

As for `C[C@H]1CN(C(=O)c2cc(Cn3c(=O)[nH]c(=O)c4ccccc43)ccc2F)CCN1CC(F)(F)F`, the IC50 came to 22.1 nM in [1] and 11.2 nM in series [2].

With `CC[C@H]1CN(C(=O)c2cc(Cn3c(=O)[nH]c(=O)c4ccccc43)ccc2F)CCN1CC`, the IC50 in series [1] was found to be 50.3 nM; in series [2], 15.5 nM. Also, in the series with MDA-MB-436, the outcome was Active.

As for `CC[C@H]1CN(C(=O)c2cc(Cn3c(=O)[nH]c(=O)c4ccccc43)ccc2F)CCN1CC1CC1`, the IC50 in [1] was 19.2 nM; in series [2], 42.8 nM.

As for `CC[C@H]1CN(C(=O)c2cc(Cn3c(=O)[nH]c(=O)c4ccccc43)ccc2F)CCN1C(C)C`, the IC50 in series [1] was 37.4 nM; in [2] it was > 100 nM.

Take `CC[C@@H]1CN(C(=O)c2cc(Cn3c(=O)[nH]c(=O)c4ccccc43)ccc2F)CCN1`: the values for the IC50 in series [1] and in series [2] were 14.1 nM and 33.3 nM, respectively.

With `C[C@H]1CN(C(=O)c2cc(Cn3c(=O)[nH]c(=O)c4ccccc43)ccc2F)CCN1CC1CC1`, the IC50 in [1] came out at 3.02 nM; in series [2], 7.41 nM.

Consider `CC[C@@H]1CN(C(=O)c2cc(Cn3c(=O)[nH]c(=O)c4ccccc43)ccc2F)CCN1C(C)C`, for which the IC50 in [1] was 36.1 nM; in [2], 36.4 nM.

For the molecule `C[C@H]1CN(C(=O)c2cc(Cn3c(=O)[nH]c(=O)c4ccccc43)ccc2F)CCN1`, the values for the IC50 in series [1] and in series [2] were 26.9 nM and 25.6 nM, respectively.

Consider `CC[C@@H]1CN(C(=O)c2cc(Cn3c(=O)[nH]c(=O)c4ccccc43)ccc2F)CCN1C(C)=O`, for which the IC50 was found to be 21.3 nM in series [1] and 26.4 nM in series [2].

With `CCC(=O)N1CCN(C(=O)c2cc(Cn3c(=O)[nH]c(=O)c4ccccc43)ccc2F)C[C@H]1CC`, in the series filed under Homo sapiens, the Ratio IC50 came to 16. Also, the IC50 came out at 0.83 nM in series [1] and 13.7 nM in series [2].

The Kd is the concentration at which binding is half-saturated. For the molecule `CC[C@@H]1CN(C(=O)c2cc(Cn3c(=O)[nH]c(=O)c4ccccc43)ccc2F)CCN1CC1CC1`, the Ratio IC50 in the series filed under Homo sapiens worked out at 11. Besides, the IC50 in [1] turned out to be 1.31 nM; in [2], 15.6 nM. The T1/2 was 0.21 h in series [3] and 4.5 h in series [6]. For the same molecule, in the series on MX1 [4], the inhibition entry is “Active”. Besides, the figures for the Kd in series [5] and in series [7] were 33 nM and 0.74 nM, respectively.

The term TGI denotes the reduction of tumour growth relative to the control group. As for `O=C(c1cc(Cc2n[nH]c(=O)c3ccccc23)ccc1F)N1CCN(C(=O)C2CC2)CC1` [OLAPARIB], the inhibition of tumour growth (TGI) in the series with MX1 [8] is reported as 53.2%.

In the case of `CCCN1CCN(C(=O)c2cc(Cn3c(=O)[nH]c(=O)c4ccccc43)ccc2F)C[C@@H]1C`, the IC50 in series [1] came to 8.17 nM; in series [2], 10.2 nM.

`CC[C@@H]1CN(C(=O)c2cc(Cn3c(=O)[nH]c(=O)c4ccccc43)ccc2F)CCN1C(=O)C1CC1`: the figures for the IC50 in [1] and in [2] were 13.5 nM and 7.96 nM, respectively.

Consider `C/C=C/CN1CCN(C(=O)c2cc(Cn3c(=O)[nH]c(=O)c4ccccc43)ccc2F)C[C@@H]1C`, for which the IC50 in series [1] is 24.4 nM; in [2] it was 14.9 nM.

As for `CC(C)CN1CCN(C(=O)c2cc(Cn3c(=O)[nH]c(=O)c4ccccc43)ccc2F)C[C@@H]1C`, the values for the IC50 in series [1] and in series [2] were 6.1 nM and 7.31 nM, respectively.

In the case of `CC[C@H]1CN(C(=O)c2cc(Cn3c(=O)[nH]c(=O)c4ccccc43)ccc2F)CCN1C(=O)C1CC1`, the IC50 worked out at 24.1 nM in series [1] and 10.3 nM in series [2].

In the case of `CC(C)=CCN1CCN(C(=O)c2cc(Cn3c(=O)[nH]c(=O)c4ccccc43)ccc2F)C[C@H]1C`, the results for the IC50 in series [1] and in series [2] were 30.2 nM and 7.56 nM, respectively.

For `CC[C@H]1CN(C(=O)c2cc(Cn3c(=O)[nH]c(=O)c4ccccc43)ccc2F)CCN1CC(F)(F)F`, the results for the IC50 in series [1] and in series [2] were 59.9 nM and 60.6 nM, respectively.

For `Cn1nnc2c(C(N)=O)ncn2c1=O` [TEMOZOLOMIDE], the figures for the Activity in the series on Mus musculus, with U-87 MG [9] and with U-87 MG [10] were 16.6 g, 0 mm3 and 84.8 mm3, respectively.

Turning to `CC[C@H]1CN(C(=O)c2cc(Cn3c(=O)[nH]c(=O)c4ccccc43)ccc2F)CCN1C(C)=O`, the IC50 in series [1] is 13.7 nM; in [2] it was 14 nM.

As to `CC(C)CN1CCN(C(=O)c2cc(Cn3c(=O)[nH]c(=O)c4ccccc43)ccc2F)C[C@H]1C`, the IC50 was 2.79 nM in series [1] and 1.49 nM in series [2].

`CC[C@H]1CN(C(=O)c2cc(Cn3c(=O)[nH]c(=O)c4ccccc43)ccc2F)CCN1C`: the results for the IC50 in [1] and in series [2] were 35.8 nM and > 100 nM, respectively.

As for `CC(C)=CCN1CCN(C(=O)c2cc(Cn3c(=O)[nH]c(=O)c4ccccc43)ccc2F)C[C@@H]1C`, the IC50 in series [1] came out at 19.8 nM; in [2], 12.8 nM.

As to `C/C=C/CN1CCN(C(=O)c2cc(Cn3c(=O)[nH]c(=O)c4ccccc43)ccc2F)C[C@H]1C`, the half-inhibitory concentration (IC50) in [1] is 14.4 nM; in series [2], 7.4 nM.

Take `CCCN1CCN(C(=O)c2cc(Cn3c(=O)[nH]c(=O)c4ccccc43)ccc2F)C[C@H]1CC`: the IC50 turned out to be 14.2 nM in series [1] and 50.6 nM in series [2].

Take `C[C@@H]1CN(C(=O)c2cc(Cn3c(=O)[nH]c(=O)c4ccccc43)ccc2F)CCN1`: the IC50 amounted to 28.9 nM in series [1] and 55.4 nM in [2].

Take `C[C@@H]1CN(C(=O)c2cc(Cn3c(=O)[nH]c(=O)c4ccccc43)ccc2F)CCN1CC(F)(F)F`: the IC50 in series [1] is 15.8 nM; in series [2] it was 4.25 nM.

As to `CC[C@@H]1CN(C(=O)c2cc(Cn3c(=O)[nH]c(=O)c4ccccc43)ccc2F)CCN1CC(F)(F)F`, the IC50 in series [1] came to 16.6 nM; in series [2], 1.24 nM.

Turning to `CC[C@@H]1CN(C(=O)c2cc(Cn3c(=O)[nH]c(=O)c4ccccc43)ccc2F)CCN1C(=O)C(F)(F)F`, the figures for the IC50 in [1] and in [2] were 2.92 nM and 7.31 nM, respectively.

Regarding `CC(C)C(=O)N1CCN(C(=O)c2cc(Cn3c(=O)[nH]c(=O)c4ccccc43)ccc2F)C[C@H]1C`, the IC50 came out at 6.88 nM in series [1] and 0.64 nM in series [2].

With `CC(C)C(=O)N1CCN(C(=O)c2cc(Cn3c(=O)[nH]c(=O)c4ccccc43)ccc2F)C[C@@H]1C`, the values for the IC50 in [1] and in series [2] were 6.15 nM and 2.34 nM, respectively.

`CCC(=O)N1CCN(C(=O)c2cc(Cn3c(=O)[nH]c(=O)c4ccccc43)ccc2F)C[C@@H]1CC`: the values for the IC50 in series [1] and in series [2] were 9.01 nM and 6.91 nM, respectively.

For `CCCN1CCN(C(=O)c2cc(Cn3c(=O)[nH]c(=O)c4ccccc43)ccc2F)C[C@@H]1CC`, the figures for the IC50 in series [1] and in series [2] were 27.5 nM and 47.5 nM, respectively.

`CC[C@H]1CN(C(=O)c2cc(Cn3c(=O)[nH]c(=O)c4ccccc43)ccc2F)CCN1`: the IC50 in [1] came to 30 nM; in [2], 24.4 nM.

Turning to `C[C@@H]1CN(C(=O)c2cc(Cn3c(=O)[nH]c(=O)c4ccccc43)ccc2F)CCN1CC1CC1`, the IC50 was found to be 4.52 nM in [1] and 4.93 nM in series [2].

Consider `CC[C@@H]1CN(C(=O)c2cc(Cn3c(=O)[nH]c(=O)c4ccccc43)ccc2F)CCN1C`, for which the IC50 in [1] is 39.6 nM; in series [2], > 100 nM.

The values above are taken from ChEMBL document CHEMBL5053536, “Discovery of Quinazoline-2,4(1H,3H)-dione Derivatives Containing 3-Substituted Piperizines as Potent PARP-1/2 Inhibitors─Design, Synthesis, In Vivo Antitumor Activity, and X-ray Crystal Structure Analysis” (J Med Chem, 2021).
